Target: T1, recombinant human DPP-1 (Cathepsin C) (Homo sapiens, UniProt P53634)
T1 construct: made in house
Assay: DPP-1 Inhibition Assay (in vitro), fluorogenic substrate GR-AMC
Assay type: biochemical
Conditions: 0.15 nM DPP-1, 10 uM GR-AMC, pH 7.0, room temperature; average value where tested multiple times
Protocol: Test compounds were assessed for DPP-1 (Cathepsin C) inhibitory activity using a fluorogenic substrate, GR-AMC (Glycine-Arginine-amino-4-methylcoumarin, Bachem, 1-1215). The amount of amino-methylcoumarin released is proportional to the DPP-1 activity, and the reaction is monitored kinetically with a Molecular Devices plate reader using black 96-well plates.
All compounds were tested under room temperature conditions. The assay buffer consisted of 50 mM HEPES, pH 7.0, 100 mM NaCl, 2 mM glutathione (GSH), and 0.002% TWEEN 20. GSH and TWEEN 20 were added to the buffer fresh daily. Just prior to use, an in-house preparation of recombinant human DPP-1 (240 μM stock, MW 49.6 kD) was diluted 600-fold in assay buffer containing fresh 2 mM dithiothreitol (DTT) to activate the enzyme, then diluted into assay buffer (without DTT) 133-fold for a DPP-1 working solution of 3 nM. Test compounds were diluted in DMSO for 20× their final assay concentrations.
Additions to a 96-well black Costar 3915 plates were as follows: 90 μL of 11 μM GR-AMC, 5 μL test compound (followed by mixing), and 5 μL 3 nM DPP1 to start the reaction. Fluorescent reactions were monitored kinetically at 360 nm excitation, 440 nm emission on a Molecular Devices Spectramax XPS reader. The Softmax Pro software of the reader determined the initial velocity of the selected data (the first 3-5 minutes of the reaction), and the best linear regression fit of the initial kinetic data. Final assay conditions were 0.15 nM DPP-1, 10 uM GR-AMC, 50 mM HEPES, pH 7.0, 100 mM NaCl, 2 mM GSH, 0.002% TWEEN 20, 1 uM DTT, 5.0% DMSO. Initial velocity rates were plotted vs. test compound concentration by use of a four-parameter logistics equation (nonlinear regression, sigmoidal dose-response (variable slope), with fixed Hill (1.0) using GraphPad Prism® software for determination of DPP-1 IC50. Within-run assay coefficient of variation (CV) was generally <10%; between-run CV <20%.
Representative compounds of the present invention were tested according to the procedure as described above, with results as listed in Table 12, below.

T1 sequence (P53634 25-463): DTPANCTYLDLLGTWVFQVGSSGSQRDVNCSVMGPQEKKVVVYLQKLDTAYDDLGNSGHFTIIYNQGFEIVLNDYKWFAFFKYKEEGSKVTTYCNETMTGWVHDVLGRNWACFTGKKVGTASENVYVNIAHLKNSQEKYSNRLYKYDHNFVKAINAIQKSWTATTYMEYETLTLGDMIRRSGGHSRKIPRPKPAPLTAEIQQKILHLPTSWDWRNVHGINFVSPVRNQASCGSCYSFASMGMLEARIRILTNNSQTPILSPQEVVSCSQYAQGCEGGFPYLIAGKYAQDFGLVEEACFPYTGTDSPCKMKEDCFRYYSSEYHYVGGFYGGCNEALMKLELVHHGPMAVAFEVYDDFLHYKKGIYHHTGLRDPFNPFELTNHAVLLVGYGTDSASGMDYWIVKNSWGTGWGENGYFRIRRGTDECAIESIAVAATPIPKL

IC50 [nM] | SMILES
260 | N[C@@H](Cc1cccs1)C(=O)N1CCC(c2cc3cc(-c4ccc5c(c4)OCO5)ccc3[nH]2)CC1 [Compound 6]
18000 | COc1ccc(-c2ccc3[nH]c(C4CCN(C(=O)[C@@H](N)Cc5nc(C)cs5)CC4)cc3c2)cc1OC [Compound 22]
520 | CC[C@H](N)C(=O)NCCCc1cc2cc(-c3ccccc3)ccc2[nH]1 [Compound 100]
19000 | CC[C@H](N)C(=O)NCCCc1cc2cc([N+](=O)[O-])ccc2o1 [Compound 49]
> 10000 | CC[C@H](N)C(=O)NCCCc1cc2cc(C(=O)Nc3ccc(OC)c(OC)c3)ccc2[nH]1 (single isomer, unassigned) [Compound 110]
270 | N[C@@H](Cc1cccs1)C(=O)N1CCC(c2cc3cc(-c4ccc5c(c4)OCCO5)ccc3[nH]2)CC1 [Compound 3]
920 | CC[C@H](N)C(=O)NCCCc1cc2cc(C(=O)Nc3cccc(C)c3)ccc2[nH]1 [Compound 93]
760 | CC[C@H](N)C(=O)NCCCc1cc2cc(-c3cc(C(F)(F)F)cc(C(F)(F)F)c3)ccc2[nH]1 [Compound 109]
6500 | CC[C@H](N)C(=O)NCCc1nc2ccccc2[nH]1 [Compound 38]
6300 | CC[C@H](N)C(=O)NCCCc1cc2cc(C(=O)Nc3nc[nH]n3)ccc2[nH]1 [Compound 48]
1300 | CC[C@H](N)C(=O)NCCCc1cc2cc(C(=O)Nc3ccc(F)cc3)ccc2[nH]1 [Compound 79]
2200 | COc1ccc(-c2ccc3[nH]c(C4CCN(C(=O)[C@@H](N)Cc5ccsc5)CC4)cc3c2)cc1OC [Compound 15]
140 | COc1ccc(NC(=O)c2ccc3[nH]c(C4CCN(C(=O)[C@@H](N)Cc5cccs5)CC4)cc3c2)cc1OC [Compound 7]
1100 | N[C@@H](Cc1cccs1)C(=O)NCCCc1cc2ccccc2o1 [Compound 56]
14000 | CC[C@H](N)C(=O)NCCCc1csc2ccccc12 [Compound 43]
82 | COc1ccc(NC(=O)c2ccc3[nH]c(CCCN(C)C(=O)[C@@H](N)Cc4cccs4)cc3c2)cc1OC [Compound 106, (S)-2-(3-(2-amino-N-methyl-3-(thiophen-2-yl)propanamido)propyl)-N-(3,4-dimethoxyphenyl)-1H-indole-5-carboxamide]
2400 | CC[C@H](N)C(=O)NCCCc1cc2cc(C(=O)Nc3cccc4[nH]cnc34)ccc2o1 [Compound 85]
860 | CC[C@H](N)C(=O)NCCCc1cc2cc(-c3ccc(OC(F)(F)F)cc3)ccc2[nH]1 [Compound 105]
2900 | CC[C@H](N)C(=O)NCCCc1cc2ccccc2[nH]1 [Compound 40, (S)—N-(3-(1H-indol-2-yl)propyl)-2-aminobutanamide]
42000 | CC[C@H](N)C(=O)NCCCc1cc2ccc(C(=O)N(CC)CC)cc2o1 [Compound 46]

IC50 [nM] | SMILES
24 | COc1ccc(NC(=O)c2ccc3[nH]c(CCCNC(=O)[C@@H](N)Cc4cccs4)cc3c2)cc1OC [Compound 97]
220 | CC[C@H](N)C(=O)NCCCc1cc2cc(C(=O)Nc3cccc4ncccc34)ccc2o1 [Compound 55]
480 | CC[C@H](N)C(=O)NCCCc1cc2cc(C(=O)Nc3cccc4cnccc34)ccc2o1 [Compound 65]
> 10000 | CC[C@H](N)C(=O)NCCc1cc2cc(C(=O)Nc3ccc(OC)c(OC)c3)ccc2[nH]1 [Compound 36]
250 | COc1ccc(-c2ccc3[nH]c(C4CCN(C(=O)[C@@H](N)Cc5cccs5)CC4)cc3c2)cn1 [Compound 25]
3700 | CC[C@H](N)C(=O)N1CCC(c2cc3cc(-c4ccc(OC)c(OC)c4)ccc3[nH]2)CC1 [Compound 9]
> 10000 | CC[C@H](N)C(=O)NCCCc1cc2cc(C(=O)O)ccc2o1 [Compound 74]
330 | COc1ccc(-c2ccc3[nH]c(C4CCN(C(=O)[C@@H](N)Cc5cccs5)CC4)cc3c2)cc1 [Compound 4]
680 | CC[C@H](N)C(=O)NCCCc1cc2cc(C(=O)Nc3ccc(C(C)C)cc3)ccc2[nH]1 [Compound 80]
1400 | CC[C@H](N)C(=O)NCCCc1cc2cc(C(=O)Nc3cccc4c3ncn4C)ccc2o1 [Compound 59]
900 | CC[C@H](N)C(=O)NCCCc1cc2cc(C(=O)Nc3cccc(F)c3)ccc2[nH]1 [Compound 90]
1300 | N[C@@H](Cc1cccs1)C(=O)NCCc1cc2ccccc2o1 [Compound 35]
94 | COc1ccc(-c2ccc3[nH]c(C4CCN(C(=O)[C@@H](N)Cc5cccs5)CC4)cc3c2)cc1OC [Compound 2, (S)-2-amino-1-(4-(5-(3,4-dimethoxyphenyl)-1H-indol-2-yl)piperidin-1-yl)-3-(thiophen-2-yl)propan-1-one]
> 20000 | COc1ccc(-c2ccc3[nH]c(C4CCN(C(=O)C(N)c5ccsc5)CC4)cc3c2)cc1OC (centres unmarked) [Compound 30]
350 | CC[C@H](N)C(=O)NCCCc1cc2cc(C(=O)Nc3ccc(OC)cc3)ccc2[nH]1 [Compound 77]
1100 | CC[C@H](N)C(=O)NCCCc1cc2cc(C(=O)Nc3ccc(C)cc3)ccc2[nH]1 [Compound 75]
4300 | CC[C@H](N)C(=O)NCCCc1cc2cc(C(=O)Nc3cc[nH]n3)ccc2[nH]1 [Compound 61]
420 | CC[C@H](N)C(=O)NCCCc1cc2cc(Oc3ccc(OC)c(OC)c3)ccc2[nH]1 [Compound 99, (S)-2-amino-N-(3-(5-(3,4-dimethoxyphenoxy)-1H-indol-2-yl)propyl)butanamide]
850 | COc1ccc(-c2ccc3[nH]c(C4CCN(C(=O)[C@@H](N)Cc5ccco5)CC4)cc3c2)cc1OC [Compound 13]
730 | CC[C@H](N)C(=O)NCCCc1cc2cc(C(=O)Nc3ccc(OC)c(OC)c3)ccc2o1 [Compound 58]

SMILES | IC50 [nM]
CC[C@H](NC(=O)OC(C)(C)C)C(=O)NCCCc1cc2cc(C(=O)O)ccc2[nH]1 [Compound 47, (S)-2-(3-(2-(tert-butoxycarbonylamino)butanamido)propyl)-1H-indole-5-carboxylic acid] | 53000

— patent US8552032B2, “Bicyclic derivatives useful as inhibitors of DPP-1” (Janssen Pharmaceutica NV, priority 2009, dated 2013)
